PubChem BioAssay (NCI)
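Results reflect a 48-hour exposure of cells in 96-well plates to compound at five concentrations. TGI: total growth inhibition.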

Key:
Assay in all cases: NCI anticancer screen, dose series, 48 h
SF-295 CNS = tested on: SF-295 CNS
IGROV1 ovarian = tested on: IGROV1 ovarian
SW-620 colon = tested on: SW-620 colon
KM20L2 colon = tested on: KM20L2 colon
NCI-H226 lung = tested on: NCI-H226 lung
SNB-19 CNS = tested on: SNB-19 CNS
DMS 273 small cell lung = tested on: DMS 273 small cell lung
HL-60(TB) leukemia = tested on: HL-60(TB) leukemia
HOP-18 NSCLC = tested on: HOP-18 NSCLC
SF-268 CNS = tested on: SF-268 CNS
SK-OV-3 ovarian = tested on: SK-OV-3 ovarian
K-562 leukemia = tested on: K-562 leukemia
EKVX NSCLC = tested on: EKVX NSCLC
TK-10 renal = tested on: TK-10 renal
UO-31 renal = tested on: UO-31 renal
NCI-H23 lung = tested on: NCI-H23 lung
SF-539 CNS = tested on: SF-539 CNS
SK-MEL-5 melanoma = tested on: SK-MEL-5 melanoma
A498 renal = tested on: A498 renal
SNB-78 CNS = tested on: SNB-78 CNS
OVCAR-5 ovarian = tested on: OVCAR-5 ovarian
HOP-92 NSCLC = tested on: HOP-92 NSCLC
UACC-257 melanoma = tested on: UACC-257 melanoma
HCT-15 colon = tested on: HCT-15 colon
LXFL 529 NSCLC = tested on: LXFL 529 NSCLC
CCRF-CEM leukemia = tested on: CCRF-CEM leukemia
MOLT-4 leukemia = tested on: MOLT-4 leukemia
UACC-62 melanoma = tested on: UACC-62 melanoma
OVCAR-4 ovarian = tested on: OVCAR-4 ovarian
NCI-H460 lung = tested on: NCI-H460 lung
KM12 colon = tested on: KM12 colon
786-0 renal = tested on: 786-0 renal
COLO 205 colon = tested on: COLO 205 colon
DMS 114 small cell lung = tested on: DMS 114 small cell lung
ACHN renal = tested on: ACHN renal
RPMI-8226 leukemia = tested on: RPMI-8226 leukemia
HCC-2998 colon = tested on: HCC-2998 colon
HOP-62 NSCLC = tested on: HOP-62 NSCLC
LOX IMVI melanoma = tested on: LOX IMVI melanoma
CAKI-1 renal = tested on: CAKI-1 renal
HT29 colon = tested on: HT29 colon
OVCAR-3 ovarian = tested on: OVCAR-3 ovarian
U251 CNS = tested on: U251 CNS
MALME-3M melanoma = tested on: MALME-3M melanoma
NCI-H522 lung = tested on: NCI-H522 lung
DLD-1 colon = tested on: DLD-1 colon
M14 melanoma = tested on: M14 melanoma
M19-MEL melanoma = tested on: M19-MEL melanoma
A549 NSCLC = tested on: A549 NSCLC
SK-MEL-2 melanoma = tested on: SK-MEL-2 melanoma
SK-MEL-28 melanoma = tested on: SK-MEL-28 melanoma
XF 498 CNS = tested on: XF 498 CNS
SNB-75 CNS = tested on: SNB-75 CNS
OVCAR-8 ovarian = tested on: OVCAR-8 ovarian
RXF 393 renal = tested on: RXF 393 renal
SN12C renal = tested on: SN12C renal

Measured: TGI

CC1=Nn2c(nnc2-c2ccc(Cl)cc2)NC(C)(C)C1
not listed: SNB-75 CNS | OVCAR-8 ovarian | RXF 393 renal | SN12C renal
> 100 µM: all other assays above

Cn1nc(N)nc1N=S(C)(C)=N
not listed: LOX IMVI melanoma | DLD-1 colon | M19-MEL melanoma
> 100 µM: all other assays above
